Experimental data published in patent publication US7112598B2, “κ opioid receptor agonist comprising 2-phenylbenzothiazoline derivative” (Santen Pharmaceutical Co., Ltd., priority 2002, dated 2006).
Where a name gives a salt, the structure may show the parent alone.

The compounds below were run against human κ opioid receptor (Homo sapiens, UniProt P41145) (assay: κ opioid receptor agonist activity test in GTP binding activity measurement system ([35S]GTPγS binding)). Conditions: test compound concentration 10^−9 M; binding of 10^−6 M (−)-U50488 = 100%; human κ opioid receptor membrane preparation; average of duplicate.
Type: biochemical
Procedure: 1. κ Opioid Receptor Agonist Activity Tests in GTP Binding Activity Measurement System
Jinmin Zhu et al. reported a method of evaluating agonist activities of drugs on a κ opioid receptor wherein guanosine 5′-triphosphate (GTP) radiolabelled with a human κ opioid receptor is used in J. Pharmaco. Exp. Ter., 282, 676–684 (1997). κ opioid receptor agonist activities (actions) of test compounds were evaluated according to the method described in the above-mentioned literature.
N-2-Hydroxyethylpiperazine-N′-2-ethanesulfonic acid (HEPES, 4.77 g), magnesium chloride hexahydrate (2.03 g), sodium chloride (5.84 g), disodium […] (EDTA•2Na, 0.37 g), DL-dithiothreitol (DTT, 0.15 g) and bovine serum albumin (BSA, 1.0 g) were dissolved in ultrapure water, pH was adjusted to 7.4 with sodium hydroxide, and further ultrapure water was added to the mixture so that a total amount was one liter to prepare a incubation buffer.
Nine volume of the incubation buffer was added to one volume of dimethyl sulfoxide (DMSO) to prepare a 10% DMSO-incubation buffer.
Tris(hydroxymethyl)aminomethane hydrochloride (TRIZA-HCl, 66.1 g) and Tris(hydroxymethyl)aminomethane (TRIZA-Base, 9.7 g) were dissolved in ultrapure water so that a total amount was 10 liters to prepare a 50 mM Tris-hydrochloric acid buffer (pH 7.4).
A human κ opioid receptor membrane preparation (100 unit/ml) was diluted 60 times with the incubation buffer under ice-cold to prepare a human κ opioid receptor membrane preparation solution. The membrane preparation solution was preserved under ice-cold.
A test compound was dissolved in 100% DMSO to prepare a 10^−3 M test compound solution, and then the incubation buffer was added to the 10^−3 M test compound solution to prepare a 10^−4 M test compound solution. Next, the 10% dimethyl sulfoxide-incubation buffer was added to the 10^−4 M test compound solution to prepare a 10^−5 M, 10^−6 M, 10^−7 M, 10^−8 M or 10^−9 M test compound solution.
A drug (−)-U50488 (J. Pharmacol. Exp. Ther., 224, 7–12 (1983)), which is known as a κ opioid receptor agonist, was used as a positive control drug in the tests.
(−)-U-50488 was dissolved in 100% DMSO to prepare a 10^−3 M positive control drug solution, and then the incubation buffer was added to the 10^−3 M positive control drug solution to prepare a 10^−4 M positive control drug solution. Next, the 10% DMSO-incubation buffer was added to the 10^−4 M positive control drug solution to prepare a 10^−6 M positive control drug solution.
GDP was dissolved in ultrapure water to prepare a 10^−3 M GDP solution, and the incubation buffer was added to the 10^−3 M GDP solution to prepare a 10^−5 M GDP solution.
10^−3 M [^35S]GTPγS was diluted with the incubation buffer to prepare 10^−9 M radiolabelled reagent.
• 1. The incubation buffer (50 μl), the 10^−5 M GDP solution (50 μl), the human κ opioid receptor membrane preparation solution (300 μl), the test compound solution and the 10^−9 M radiolabelled reagent (50 μl) were put into a glass tube, and then the mixture was incubated at 30° C. for 60 minutes. • 2. The 50 mM Tris-hydrochloric acid buffer (pH 7.4) was added to the mixture to stop the reaction, the reaction mixture was suction-filtered with a GF/B filter, and then the residue on the GF/B filter was washed with the 50 mM Tris-hydrochloric acid buffer (3 ml) three times. • 3. The GF/B filter was air-dried, and then the residue on the GF/B filter was taken out with an antomatic dispenser and transfered into a vial. • 4. Scintisol EX-H (5 ml) was introduced into the vial to prepare a sample solution, and then radioactivity in the sample solution was measured with a liquid scintillation counter for one minute. The radioactivity was expressed in “cpm” (counts per minute). Calculation Formula of κ Opioid Receptor Agonist Activity
Each agonist activity of the test compound on the κ opioid receptor was expressed in [^35S]GTPγS binding % when [^35S]GTPγS binding of 10^−6 M (−)-U50488 was 100%. […]

Chain of human κ opioid receptor (P41145 whole entry): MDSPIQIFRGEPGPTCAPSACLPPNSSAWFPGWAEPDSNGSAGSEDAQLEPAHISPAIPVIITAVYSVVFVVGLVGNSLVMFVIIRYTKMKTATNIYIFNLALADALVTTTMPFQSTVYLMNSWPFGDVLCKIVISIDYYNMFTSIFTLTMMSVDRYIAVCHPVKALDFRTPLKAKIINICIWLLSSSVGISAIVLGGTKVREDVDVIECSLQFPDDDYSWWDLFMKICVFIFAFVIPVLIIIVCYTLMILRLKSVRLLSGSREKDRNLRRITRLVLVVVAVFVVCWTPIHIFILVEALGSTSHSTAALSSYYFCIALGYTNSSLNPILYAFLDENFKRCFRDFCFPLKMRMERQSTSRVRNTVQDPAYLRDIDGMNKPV

SMILES	[^35S]GTP γ S binding % [%]
CCN(CCCOc1ccc(OC)cc1C1Sc2cc(Cl)ccc2N1C(C)=O)C(C)C (single isomer, unassigned; (+)) [Compound No. 9-10, (+)-3-Acetyl-6-chloro-2-[2-(3-(N-ethyl-N-isopropylamino)propoxy)-5-methoxyphenyl]benzothiazoline Hydrochloride]	116.8
COc1ccc(OCCCN(CCO)C(C)C)c(C2Sc3ccc(C(F)(F)F)cc3N2C(C)=O)c1 (stereo not drawn) [Compound No. 4-2, 3-Acetyl-2-[2-(3-(N-(2-hydroxyethyl)-N-isopropylamino)propoxy)-5-methoxyphenyl]-5-trifluoromethylbenzothiazoline Hydrochloride]	65.1
COc1ccc(OCCCN2CC[C@H](O)C2)c(C2Sc3cc(Cl)ccc3N2C(C)=O)c1 (stereo partly drawn) [Compound No. 3-14, 3-Acetyl-6-chloro-2-[2-(3-((3S)-hydroxyazolan-1-yl)propoxy)-5-methoxyphenyl]benzothiazoline Hydrochloride]	59.8
COc1ccc(OCCCN(C)C(C)C)c(C2Sc3cc(Cl)ccc3N2C(C)=O)c1 (single isomer, unassigned; (+)) [Compound No. 9-12, (+)-3-Acetyl-6-chloro-2-[2-(3-(N-isopropyl-N-methylamino)propoxy)-5-methoxyphenyl]benzothiazoline Hydrochloride]	107.9
COc1ccc(OCCCN(Cc2cccs2)C(C)C)c(C2Sc3cc(Cl)ccc3N2C(C)=O)c1 (single isomer, unassigned; (+)) [Compound No. 9-4, (+)-3-Acetyl-6-chloro-2-[2-(3-(N-isopropyl-N-(thiophen-2-ylmethyl)-amino)propoxy)-5-methoxyphenyl]benzothiazoline Hydrochloride]	72.1
COc1ccc(OCCCN2CCC[C@H]2CO)c(C2Sc3cc(Cl)ccc3N2C(C)=O)c1 (stereo partly drawn) [Compound No. 3-12, 3-Acetyl-6-chloro-2-[2-(3-((2S)-2-hydroxymethylazolan-1-yl)propoxy)-5-methoxyphenyl]benzothiazoline Hydrochloride]	75.6
COc1ccc(OC(C)CCN(CCO)C(C)C)c(C2Sc3cc(Cl)ccc3N2C(C)=O)c1 (stereo not drawn) [Compound No. 7-2, 3-Acetyl-6-chloro-2-[2-(3-(N-(2-hydroxyethyl)-N-isopropylamino)-1-methylpropoxy)-5-methoxyphenyl]benzothiazoline Hydrochloride]	62.9
COc1ccc(OCCCN(CCO)CC(C)C)c(C2Sc3cc(Cl)ccc3N2C(C)=O)c1 (stereo not drawn) [Compound No. 3-11, 3-Acetyl-6-chloro-2-[2-(3-(N-(2-hydroxyethyl)-N-(2-methylpropyl)-amino)propoxy)-5-methoxyphenyl]benzothiazoline Hydrochloride]	53.7
COc1ccc(OCCCN(C(C)C)C(C)C)c(C2Sc3cc(Cl)ccc3N2C(C)=O)c1 (single isomer, unassigned; (+)) [Compound No. 9-11, (+)-3-Acetyl-6-chloro-2-[2-(3-(N,N-diisopropylamino)propoxy)-5-methoxyphenyl]benzothiazoline Hydrochloride]	55.0
COc1ccc(OCCCN(CCO)C(C)C)c(C2Sc3ccccc3N2C(C)=O)c1 (single isomer, unassigned; (+)) [Compound No. 11-3, (+)-3-Acetyl-2-[2-(3-(N-(2-hydroxyethyl)-N-isopropylamino)-propoxy)-5-methoxyphenyl]benzothiazoline Hydrochloride]	85.1
COc1ccc(OCCCN(C)CCO)c(C2Sc3cc(Cl)ccc3N2C(C)=O)c1 (single isomer, unassigned; (+)) [Compound No. 9-16, (+)-3-Acetyl-6-chloro-2-[2-(3-(N-(2-hydroxyethyl)-N-methylamino)-propoxy)-5-methoxyphenyl]benzothiazoline Hydrochloride]	57.2

Same assay, conditions: test compound concentration 10^−9 M; binding of 10^−6 M (−)-U50488 = 100%; human κ opioid receptor membrane preparation; average of duplicate; Hydrochloride

SMILES	[^35S]GTP γ S binding % [%]
CCOCCN(CCCOc1ccc(OC)cc1C1Sc2cc(Cl)ccc2N1C(C)=O)C(C)C (single isomer, unassigned; (-)) [Compound No. 10-3, (−)-3-Acetyl-6-chloro-2-[2-(3-(N-(2-ethoxyethyl)-N-isopropylamino)-propoxy)-5-methoxyphenyl]benzothiazoline Hydrochloride]	55.7
CCOCCN(CCCOc1ccc(OC)cc1C1Sc2cc(Cl)ccc2N1C(C)=O)C(C)C (single isomer, unassigned; (+)) [Compound No. 9-3, (+)-3-Acetyl-6-chloro-2-[2-(3-(N-(2-ethoxyethyl)-N-isopropylamino)-propoxy)-5-methoxyphenyl]benzothiazoline Hydrochloride]	117.5
COCCN(CCCOc1ccc(OC)cc1C1Sc2cc(Cl)ccc2N1C(C)=O)C(C)C.Cl (single isomer, unassigned; (-)) [Compound No. 10-1, (−)-3-Acetyl-6-chloro-2-[2-(3-(N-isopropyl-N-(2-methoxyethyl)amino)-propoxy)-5-methoxyphenyl]benzothiazoline Hydrochloride]	50.5
COc1ccc(OCCCN(CCO)C(C)C)c(C2Sc3cc(Cl)ccc3N2C(C)=O)c1 (single isomer, unassigned; (-)) [Compound No. 10-2, (−)-3-Acetyl-6-chloro-2-[2-(3-(N-(2-hydroxyethyl)-N-isopropylamino)-propoxy)-5-methoxyphenyl]benzothiazoline Hydrochloride]	65.8
COc1ccc(OCCCN(Cc2ccco2)C(C)C)c(C2Sc3cc(Cl)ccc3N2C(C)=O)c1 (stereo not drawn) [Compound No. 3-38, 3-Acetyl-6-chloro-2-[2-(3-(N-(furan-2-ylmethyl)-N-isopropylamino)-propoxy)-5-methoxyphenyl]benzothiazoline Hydrochloride]	58.4
COc1ccc(OCCCN(Cc2ccco2)C(C)C)c(C2Sc3cc(Cl)ccc3N2C(C)=O)c1 (single isomer, unassigned; (+)) [Compound No. 9-5, (+)-3-Acetyl-6-chloro-2-[2-(3-(N-(furan-2-ylmethyl)-N-isopropylamino)propoxy)-5-methoxyphenyl]benzothiazoline Hydrochloride]	132.5

Same assay, conditions: test compound concentration 10^−9 M; binding of 10^−6 M (−)-U50488 = 100%; human κ opioid receptor membrane preparation; average of duplicate; read-out: [^35S]GTP γ S binding %

SMILES	activation at 0.001 µM [%]
COCCN(CCCOc1ccc(OC)cc1C1Sc2ccccc2N1C(C)=O)C(C)C (stereo not drawn) [Compound No. 8-1, 3-Acetyl-2-[2-(3-(N-isopropyl-N-(2-methoxyethyl)amino)propoxy)-5-methoxyphenyl]benzothiazoline Hydrochloride]	103

What follows are compounds tested on mouse acetic acid writhing (assay: Antinociceptive action test by mouse acetic acid writhing method). Conditions: 30 mg/kg oral, 20 min before 0.7% acetic acid i.p., writhing counted 10 to 20 minutes after acetic acid, vs vehicle group, average of seven samples.
Type: in vivo
Procedure: 2. Antinociceptive Action Tests by Mouse Acetic Acid Writhing Method
Accordingly, antinociceptive action tests of test compounds were carried out using the mouse acetic acid writhing method, and analgesic effects of the test compounds were evaluated.
Twenty minutes after oral administration of the test compound (30 mg/kg), the 0.7% acetic acid solution was administered intraperitoneally in a rate of 0.1 ml per 10 g of mouse weight.
Inhibition rates were calculated according to the following equation.
The antinociceptive action of the test compound was expressed in an inhibition rate to writhing numbers of a vehicle group.

SMILES	Inhibition rate (%)
COc1ccc(OCCCN(C)C(C)C)c(C2Sc3cc(Cl)ccc3N2C(C)=O)c1 (single isomer, unassigned; (+)) [Compound No. 9-12, (+)-3-Acetyl-6-chloro-2-[2-(3-(N-isopropyl-N-methylamino)propoxy)-5-methoxyphenyl]benzothiazoline Hydrochloride]	57.8
COc1ccc(OC(C)CCN(CCO)C(C)C)c(C2Sc3cc(Cl)ccc3N2C(C)=O)c1 (stereo not drawn) [Compound No. 7-2, 3-Acetyl-6-chloro-2-[2-(3-(N-(2-hydroxyethyl)-N-isopropylamino)-1-methylpropoxy)-5-methoxyphenyl]benzothiazoline Hydrochloride]	70.0

Same assay, conditions: 30 mg/kg oral, 20 min before 0.7% acetic acid i.p., writhing counted 10 to 20 minutes after acetic acid, vs vehicle group, average of seven samples, Hydrochloride, 30 mg/kg

SMILES	Inhibition rate (%)
CCOCCN(CCCOc1ccc(OC)cc1C1Sc2cc(Cl)ccc2N1C(C)=O)C(C)C (single isomer, unassigned; (+)) [Compound No. 9-3, (+)-3-Acetyl-6-chloro-2-[2-(3-(N-(2-ethoxyethyl)-N-isopropylamino)-propoxy)-5-methoxyphenyl]benzothiazoline Hydrochloride]	100.0
